From US12201610B2, “Compositions comprising aticaprant” (Janssen Pharmaceuticals, Inc., priority 2022, dated 2025)
Like-named read-outs stand apart in the source and are kept apart here.

Columns and labels:
[1] = Phase 1 PK Part 1: relative bioavailability, dose proportionality, food effect of unmilled API tablet; type: in vivo, human; settings: human, plasma, 10 mg; for Tmax: median
Description: This is a Phase 1, open-label, single dose, multicenter, 4-part study in healthy adult participants.
Potential participants will be screened from Day −28 to Day −2 to determine participants' eligibility for study participation. For Part 1, qualified participants will be admitted on Day −1 of each treatment period and will remain in-house for the total duration of the treatment (Day −1 until Day 5, with single-dose treatment on Day 1 and 96 hours of PK), whereas for Part 2, PK sampling will be done up to 120 hours (Day 6). Each dosed participant will have a safety follow-up on Day 10 to Day 14 after last dose of the study intervention.
The Part 1 of the study involves determination of relative bioavailability for tablet (Formulation Concept 1, i.e., unmilled aticaprant formulation, see Table 10) and capsule formulations (see Example 6, study design, for description of capsule formulation) and dose proportionality and food effect for tablet formulation (Formulation Concept 1) in healthy adult participants (FIG. 25). Part 1 will consist of Subpart 1A and Subpart 1B consisting of a total of 4 periods. […] Participants will be assigned to 1 of 6 treatment sequences (Table 51) and will be administered the 3 treatments in a 3-way crossover. The same 24 participants who complete Subpart 1A will be enrolled in Subpart 1B. Subpart 1B consists of a fourth period to evaluate the food effect of a single dose of 10 mg aticaprant administered as 1×10 mg oral tablet (Formulation Concept 1) under fed conditions (Treatment D; Table 50 and Table 52). A preliminary PK analysis will be conducted at the end of the food effect part (Subpart 1B) for all the periods from Part 1 and will include the food effect data.
Secondary Objectives: • To assess the safety and tolerability of oral doses of aticaprant in healthy adult participants. Part 2
For each individual participant, there will be a washout period of at least 7 days for Part 1 and at least 8 days for Part 2 between subsequent intakes of the study intervention. Day 1 of a treatment period (day of study intervention intake) is the first day of the washout period (also in between the study parts, if applicable).
Participants will be fasting in Part 1A and Part 2A. Participants will have been fed in Parts 1B and 2B. For a fasted condition, participants will fast (nothing to cat or drink except noncarbonated water) overnight for at least 10 hours before and until 4 hours after study intervention administration during each fasted treatment period. Approximately, 4 hours post-dose and after the 4-hour PK sampling, a standard lunch will be served at the study-site. Intake of water is allowed until 2 hours before the intake of the study intervention. Thereafter, water intake is only allowed for study intervention intake and for breakfast, if applicable. Drinking of water is allowed ad libitum from approximately 2 hours after dosing. For a fed condition, participants will consume, after an overnight fast (at least 10 hours), a standardized high-fat breakfast within a 20-minute period. […] Study intervention will be administered approximately 30 minutes after the start of the breakfast.
In Parts 1 and 2, plasma concentrations will be determined for aticaprant. Blood samples for determination of plasma concentrations of aticaprant will be collected predose and at the postdose time points starting on Day 1 as indicated in the Tables 57-58.
The following plasma PK parameters of aticaprant will be determined. A noncompartmental model with extravascular input will be used for the pharmacokinetic analysis.
Based on the individual concentration-time data, using the actual sampling times, the following PK parameters will be derived for aticaprant: […]

[2] = test system: subjects with MDD; experiment: Treatment-emergent adverse events, full safety analysis set (Example 6); type: in vivo, human
[3] = oral, Treatment D: 1 × 10 mg Formulation Concept 1 (unmilled API tablet), after high-fat breakfast, mean
[4] = po, Treatment A: 2 × 5 mg oral capsule, fasting, mean
[5] = TEAE in >= 5% of subjects, Treatment Period, Full Safety Analysis Set, aticaprant 10 mg (N = 85), Table 40
[6] = TEAE of Special Interest, Treatment Period, Full Safety Analysis Set, aticaprant 10 mg (N = 85), Table 41
[7] = Treatment Period, Full Safety Analysis Set, aticaprant 10 mg (N = 85)

Cc1cc(C)cc(C2CCCN2Cc2ccc(Oc3ccc(C(N)=O)cc3F)cc2)c1 (centres unmarked) [aticaprant, 3-fluoro-4-4-2-(3,5-dimethylphenyl)pyrrolidin-1-yl-methylphenoxybenzamide]
AUC(0-inf) ([1]; oral, Treatment B: 1 × 10 mg Formulation Concept 1 (unmilled API tablet), fasting, mean, read-out: AUC∞): 301 ng·h/mL
Tmax ([1]; oral, Treatment B: 1 × 10 mg Formulation Concept 1 (unmilled API tablet), fasting): 1.5 h
Vd/F [1, 3]: 835 L
half-life [1, 3]: 24.5 h
AUC(0-t) ([1]; oral, Treatment D: 1 × 10 mg Formulation Concept 1 (unmilled API tablet), after high-fat breakfast, mean, read-out: AUClast): 398 ng·h/mL
AUC(0-inf) ([1]; oral, Treatment D: 1 × 10 mg Formulation Concept 1 (unmilled API tablet), after high-fat breakfast, mean, read-out: AUC∞): 425 ng·h/mL
Cmax ([1]; oral, Treatment D: 1 × 10 mg Formulation Concept 1 (unmilled API tablet), after high-fat breakfast, mean, read-out: Cmax): 37.7 ng/mL
Tmax ([1]; oral, Treatment D: 1 × 10 mg Formulation Concept 1 (unmilled API tablet), after high-fat breakfast): 2.75 h
AUC(0-t) ([1]; po, Relative BA, completers, Treatment A (Reference): 2 × 5 mg oral capsule, fasting, read-out: Geometric Mean AUClast): 291 ng·h/mL
AUC(0-inf) ([1]; po, Relative BA, completers, Treatment A (Reference): 2 × 5 mg oral capsule, fasting, read-out: Geometric Mean AUC∞): 305 ng·h/mL
Cmax ([1]; po, Relative BA, completers, Treatment A (Reference): 2 × 5 mg oral capsule, fasting, read-out: Geometric Mean Cmax): 30.2 ng/mL
Vd/F [1, 4]: 1250 L
half-life [1, 4]: 26.3 h
AUC(0-t) ([1]; po, Treatment A: 2 × 5 mg oral capsule, fasting, mean, read-out: AUClast): 304 ng·h/mL
AUC(0-inf) ([1]; po, Treatment A: 2 × 5 mg oral capsule, fasting, mean, read-out: AUC∞): 315 ng·h/mL
Cmax ([1]; po, Treatment A: 2 × 5 mg oral capsule, fasting, mean, read-out: Cmax): 31.2 ng/mL
Tmax ([1]; po, Treatment A: 2 × 5 mg oral capsule, fasting): 1.5 h
Diarrhea, % [2, 5]: 8%
Gastrointestinal Disorders, % [2, 5]: 14%
Headache, % [2, 5]: 12%
Infections And Infestations, % [2, 5]: 15%
Nasopharyngitis, % [2, 5]: 6%
Nervous System Disorders, % [2, 5]: 15%
Pruritus, % [2, 5]: 6%
Skin And Subcutaneous Tissue Disorders, % [2, 5]: 7%
Total no. Subjects with Adverse Events, % [2, 5]: 47%
Abdominal Pain, % [2, 6]: 1.2%
Diarrhea, % [2, 6]: 8.2%
Dyspepsia, % [2, 6]: 1.2%
Gastrointestinal Disorders, % [2, 6]: 10.6%
Pruritus, % [2, 6]: 5.9%
Skin And Subcutaneous Tissue Disorders, % [2, 6]: 5.9%
Total no. Subjects with Adverse Events of Special Interest, % [2, 6]: 15.3%
Subjects with TEAE leading to discontinuation of agent, % [2, 7]: (1.2) %
Total subjects affected by non-serious adverse events, % [2, 7]: (27.1%)
Subjects with 1 or more TEAE, % ([2]; Treatment Period, Full Safety Analysis Set, aticaprant 10 mg (N = 85), Table 39): (47.1) %
Subjects with drug-related TEAE, % ([2]; Treatment Period, Full Safety Analysis Set, aticaprant 10 mg (N = 85), possible, probable, very likely): (23.5) %
subjects who discontinued during the treatment period due to TEAEs ([2]; due to diarrhea, nausea, vomiting and headache): 1 subject
subjects with at least one TEAE during the treatment period ([2]; full safety analysis set, 40/85 subjects): 47.1%
patients with acute cholecystitis ([2]; treatment period): 0 patients
subjects with pruritus (TEAE of special interest) ([2]; treatment period, 5/85 subjects): 5.9%
subjects with diarrhea (TEAE) ([2]; treatment period, 7/85 subjects): 8.2%
subjects with headache (TEAE) ([2]; treatment period, 10/85 subjects): 11.8%
subjects with TEAEs of special interest ([2]; treatment period, 13/85 subjects): 15.3%
